The subject of one assay is mice. The assay can be described thus: Writhing Assay (PBQ-induced writhing, analgesic activity in mice). The format is in vivo, mouse (Charles River male albino mice). Particulars: for WRITHING ASSAY Number Out of Ten (number of mice out of ten in which a test compound produced analgesia): 30 mg per kilogram i.g., 30 min before PBQ i.p., writhes <= one-half median of saline control. The source says:
The Writhing Assay is one of the most widely-used experimental procedures for measuring the analgesic activity of different narcotic and nonnarcotic analgesic agents, and involves the continuous, chemically-induced pain of visceral origin to an animal, such as a mouse or rat. [Gyires et al., Arch. int. Pharmacodyn, 267, 131-140 (1984); […] al., Fed. Proc., 15, 494 (1956); Koster et al., Fed. Proc., 18, 412 (1959); and Witken et al., J. Pharmacol. exp. Ther., 133, 400-408 (1961).] Chemicals which may be used to induce this pain include phenylbenzoquinone (PBQ) and acetic acid. As a result of the chemical irritation to the animal, a characteristic stretching and writhing of the animal (dorsiflexion of the animal's back, extension of its hindlimbs and the strong contraction of its abdominal musculature) will generally occur. […] Drugs which reduce the number of writhes of the animal appear to restore the normal nociceptive threshold of the animal. […] Charles River male albino mice, weighing 20 to 30 grams, were used in this assay. Thirty minutes after intragastric administration to ten mice of 30 mg per kilogram of body weight of a compound of the present invention ("test compound"), […] of body weight of a 0.025% w/v solution of PBQ was injected intraperitoneally into each mouse. Ten mice which were given saline in place of a test compound of the invention were used as a control group. Five minutes later, each mouse was individually placed into a glass beaker for observation, and the number of writhes occurring during the following ten-minute period was counted. A test compound was considered to have produced analgesia in a mouse if, in accordance with the conditions set forth above, and under the test criteria employed for this assay, after the administration of 30 mg per kilogram of body weight of a compound of the present invention to the mouse, the number of writhes elicited by a mouse injected with PBQ was equal to, or less than, one-half the median number of writhes recorded for the saline-treated control group of mice that day, as described by Taber in "Predictive Value of Analgesic Assays in Mice and Rats," Advances in Biochemical Psychopharmacology, 8, 191 (1974). The results for the particular compounds of the present invention analyzed in this assay, and discussed in the examples identified below which correspond thereto, are presented in Table 1 hereinbelow as fractions under the heading "WRITHING ASSAY." The fractions indicate the number of mice out of ten in which a test compound produced analgesia. The standard initial screening dose of a test compound employed in this assay was […]. If this initial screening dose of the test compound produced analgesia in seven out of ten mice, then the effect of additional doses of the test compound on the writhing response was evaluated, and then the ED50 dose was generally calculated. (The slopes of the dose-response curves for all test compounds analyzed were compared as described by Tallarida and Murray, Manual of Pharmacologic Calculations, Page 11 (Springer Verlag, New York, 1981)). All ED50 doses calculated are also presented in Table 1 hereinbelow under the heading "WRITHING ASSAY," but as whole numbers.

Assay [1] deals with prostaglandin E2-induced contractions of segments of guinea pig ileum. The assay can be described thus: Prostaglandin (PGE) Antagonism Assay (inhibition of prostaglandin E2-induced contractions of guinea pig ileum segments). The note with it: ratio of prostaglandin E2 EC50 with/without test compound; initial concentration 3 micromolar; 30 min incubation; 37° C.; active if dose ratio >= 2. As to the method: In order to determine the effectiveness of several of the compounds of the present invention ("test compounds") as prostaglandin E2 antagonists,a prostaglandin antagonism assay was conducted, as described below, to determine the ability of these compounds to inhibit prostaglandin E2 -induced contractions of segments of guinea pig ileum. […] Male albino guinea pigs weighing 200 to 500 grams were sacrificed by cervical dislocation. The ilea were then quickly removed from the guinea pigs and placed in a modified Tyrode solution, a solution which is known to those skilled in the art, containing one-half of the usual amount of magnesium ions. Segments of ileum about 2 cm long were then cut and mounted in a 10 mL tissue bath containing the modified Tyrode solution. The solution was maintained at 37° C. and aerated with a gaseous mixture of 95% oxygen and 5% carbon dioxide. Data for a control prostaglandin E2 dose response curve plotting concentration of prostaglandin E2 versus the intensity of contractions, detected isotonically, was then obtained by experimentally adjusting the dose of the prostaglandin E2 being injected into the tissue bath, in a manner known by those of skill in the art. Solutions or suspensions containing an initial concentration (3 micromolar) of a test compound in modified Tyrode solution ("test solutions/suspensions") were then separately substituted for the control bath solution. Each test solution/suspension was then kept in constant contact with the ileum tissue, except for brief periods to drain the bath in preparation for rinsing with fresh test solution/suspension. A second prostaglandin E2 dose response curve was then generated for prostaglandin E2 in the presence of a test compound. A control dose response curve is produced in isolated segments of guinea pig ileum mounted in an automated apparatus with six concentrations of prostaglandin E2. A solution or suspension of test compound is substituted for the control bathing solution and is incubated for thirty minutes. An additional prostaglandin E2 dose response curve is then performed in the presence of the test compound. A dose ratio is calculated from the EC50 values obtained from duplicate replications on each concentration of the test compound. […] A dose ratio of EC50 doses was calculated from the results of each test in a manner known by those of skill in the art, and described above. A test compound was determined to be "active" if the initial concentration used yielded at least a two-fold shift (dose ratio greater than or equal to 2) in the dose response curve for prostaglandin E2. The compounds of the present invention which were tested in this assay, and for which results are presented in Table 1, correspond to the particular examples specified in Table 1.

Counter-ions that a name gives are not always drawn.

Usually ED50 stands for the dose that gives a 50% effect, or the effect in half of the subjects.

Take `O=c1c(N2Cc3ccccc3Oc3ccc(Cl)cc32)c(N2Cc3ccccc3Oc3ccc(Cl)cc32)c1=O` [Example 8, 3,4-bis[8-chlorodibenz[b,f][1,4]oxazepin-10(11H) -yl]-3-cyclobutene-1,2-dione]: in the assay with mice, the “WRITHING ASSAY Number Out of Ten (number of mice out of ten in which a test compound produced analgesia)” value (“WRITHING ASSAY Number Out of Ten” for short) was 6/10. For the same molecule, in assay [1], the “PGE ANTAGONISM IN GUINEA PIG ILEUM Dose Ratio” value was 1.9 ± 0.9.
Consider `CCN1CCN(c2c(N3Cc4ccccc4Oc4ccc(Cl)cc43)c(=O)c2=O)CC1` [Example 2, 3-(8-Chlorodibenz[b,f][1,4]oxazepin-10(! ! H)-yl)-4-(4-ethyl-1-piperazinyl)-3-cyclobutene-1,2-dione, monohydrochloride], for which the “WRITHING ASSAY Number Out of Ten” value in the assay on mice is given as 6/10. In addition, the “PGE ANTAGONISM IN GUINEA PIG ILEUM Dose Ratio” value in assay [1] amounted to 5.0 ± 2.6.
In the case of `CN(C)CCNc1c(N2Cc3ccccc3Oc3ccc(Cl)cc32)c(=O)c1=O.Cl` [Example 6, 3-(8-Chlorodibenz[b,f][1,4]oxazepin-10(11H)-yl)-4-[[2-(dimethylamino)ethyl]amino]-3-cyclobutene-1,2-dione, hydrochloride], in the assay with mice, the “WRITHING ASSAY Number Out of Ten” value is listed as 6/10. In assay [1], the “PGE ANTAGONISM IN GUINEA PIG ILEUM Dose Ratio” value is 6.8 ± 4.5.
Take `Cl.O=c1c(NCc2ccncc2)c(N2Cc3ccccc3Oc3ccc(Cl)cc32)c1=O` [Example 7, 3-(8-Chlorodibenz[b,f][1,4]oxazepin-10(11H)-yl)-4-[(4-pyridinylmethyl)amino]-3-cyclobutene-1,2-dione, hydrochloride]: the ED50 with mice (Mus musculus, po, intragastric, PBQ i.p., dose producing analgesia in 50% of the animals, read-out: WRITHING ASSAY ED50 Dose I.G.) turned out to be 9.7 mg/kg. For the same molecule, the “PGE ANTAGONISM IN GUINEA PIG ILEUM Dose Ratio” value in assay [1] turned out to be 22 ± 5.
Take `CCOC(=O)C1CN(c2c(N3Cc4ccccc4Oc4ccc(Cl)cc43)c(=O)c2=O)CCN1c1ccccc1` (stereo not drawn) [Example 4, Ethyl 4-[2-(8-chlorodibenz[b,f][1,4]oxazepin-10(11H)-yl)-3,4-dioxo-1-cyclobuten-1-yl]-1-phenyl-2-piperazinecarboxylate]: in the assay with mice, the “WRITHING ASSAY Number Out of Ten” value is 4/10.

Source of the values: US5354746A, “Squaric acid derivatives of substituted dibenzoxazepine compounds, pharmaceutical compositions and methods of use” (G. D. Searle & Co., priority 1993, dated 1994).
